Data as given in patent US20060014726A1, “Derivatives of cyclic1, 3- propanediol phosphate and their action in differentiation therapy” (priority 2002, published 2006).

Columns and labels:
PR mRNA in MCF-7 cells = test: Quantitative RT-PCR of PR mRNA in MCF-7 cells; format: cell-based, human; settings: 20 μM
Experimental: (§1) It should however be understood that the augmented expression of ER-α and PR presented in FIGS. 1-3 could have in principle originated from increase in either transcription or translation associated with the respective steroid receptor genes. Therefore the effects of long term incubation with 1,3cPP on the respective ER-α and PR mRNA levels were examined. Quantitative RT-PCR was carried out with a Light Cycler as described. […] In contrast, only 20 μM 1,3-cPP were required to induce 7-fold increase in the ER-α mRNA in T47D clone 8 cells (FIG. 4D). […]
(§2) RT-PCR was carried out on a programmable thermal controller instrument according to standard protocols, where the annealing temperatures were 58° C. for ER-α and 56° C. for PR. […] The PCR products were diluted and used to build a standard curve for the quantitative PCR which was carried out in a Light Cycler instrument (Roche Diagnostics, Mannheim, Germany). […] For each control and test sample, the amount of the constitutively expressed house keeping enzyme glyceraldehyde-3-phosphate dehydrogenase (GAPDH) mRNA was quantified by using appropriate primers and the quantity of ER-α and PR mRNA were normalized to the quantity of GAPDH mRNA in each sample. The relative amounts of ER-α and PR mRNA were expressed as normalized 1,3cPP treatment values divided by the normalized control values.

MCF-7 cells = test: Anti-tumor assay, MCF-7 tumors in athymic CD-1 mice; format: in vivo
Experimental: To test this possibility, we followed the procedure of Kurokawa et al. Female athymic outbred CD-1 mice were implanted with a slow release estradiol tablet and injected intra-fat-pad (i.f.p.) in the lower right abdomen 3×10^6 viable MCF-7 cells (see Materials and Methods). Twelve days later, when the tumors became palpable, mice were randomly allocated into two groups, each with six mice. The control group was injected with PBS i.p. and the treatment group was injected with 0.5 mg 1,3cPP dissolved in PBS i.p. in the lower left abdomen on day 1,3,6, and 8. Tumor size was then measured 2-3 times a week. In the control group, the tumors grew continuously and reached an average size of >1250 mm^3. The origin of the large variation in tumor size was due to one mouse with a relatively small tumor in this group.
Female athymic outbred CD-1 mice 12 weeks of age were obtained from the animal breeding center of our Institute. Animals were maintained and treated according to “Principles of laboratory animal care”, (NIH publication no. 85-23) under the supervision of the Council for Experiments on animals, of our Institute. Mice were anesthetized and implanted subcutaneously with a 0.25 mg, 21-day release 17β-estradiol pellet (Innovative Research of America, Sarasota, Fla.) in the dorsal space and injected intra-fat-pad (i.f.p.) in the lower right abdomen with 3×10^6 MCF-7 cells. Twelve days later, when the tumors became palpable, mice were randomly allocated into two groups, each with 6 mice. The control group was injected with PBS and the treatment group was injected with 0.5 mg 1,3cPP in PBS i.p. in the lower left abdomen on day 1,3,6, and 8. Tumor diameters were serially measured with calipers assuming a hemiellipsoid shape, where volume=[…]×(length/2)×(width/2)×(thickness/2).

[1] = test system: T47D human breast cancer cells (clone 11); test: Proliferation assay ([3H]thymidine uptake); format: cell-based; settings: T47D clone 11, 50 μM
Experimental: In order to validate such an observation, T47D cells were incubated with varying concentration of 1,3-cPP in the range of 1-50 μM in a standard 5 day [3H]thymidine uptake assay.
T47D cells (clone 11;ER^+PR^+) were plated in 96 well plates in sets of 6, each containing 8×10^4 cells in a final volume of 200 μl per well. 1,3-cPP was added to the cultures to form a final concentration of 1-50 μM. Plates were incubated at 37° C. over the course of 5 days, where on each day, one plate was pulsed with [^3H]thymidine (5.7 Ci/mmol, Sigma, St. Louis, Mo.) overnight for the last 16 hours of the assay, and then frozen. The plates were harvested (Packard micromate 196 harvester, Merriden, Conn.) and radioactivity was scored on a 96 well plate reader (Packard 96, merriden, Conn.).

[2] = test system: ER-α mRNA in T47D clone 8 cells; test: Quantitative RT-PCR of ER-α mRNA in T47D clone 8 cells; format: cell-based, human; settings: 20 μM, 6 days (FIG. 4D)
Experimental: as §1, §2

[3] = 0.5 mg i.p. on day 1,3,6 and 8, athymic CD-1 mice

In the case of `O=P1(O)OCCCO1` [1,3-cPP, 1,3-cyclic propanediol phosphate], the “increase in the normalized PR mRNA expression” value (PR mRNA in MCF-7 cells; 8th day) is reported as 3 fold, the “increase in the normalized PR mRNA expression” value (PR mRNA in MCF-7 cells; 11th day) is reported as “about 1.5 fold” and the “changes in appearance, body weight or behavior upon injection” value (MCF-7 cells; [3]) is reported as “no changes in appearance, body weight or behavior”. The “toxic effects during the course of the experiment” value (MCF-7 cells; [3]) was “No observable toxic effects”, the “tumor size, treatment versus control group” value (MCF-7 cells; 0.5 mg i.p. on day 1,3,6 and 8, day 36 (P=0.032) and day 43 (P=0.032), MCF-7 tumors in athymic CD-1 mice) was “significant difference” and the “proliferation ([3H]thymidine uptake), persistence of effect” value ([1]; after the third day of 5 day assay) was “effect was lost after the third day”. The “proliferation ([3H]thymidine uptake) compared to control cultures” value ([1]; first 3 days of incubation, P values 0.0370, 0.0192 and 0.0238 on days 1-3) was “significantly inhibited proliferation” and the “increase in the ER-α mRNA” value [2] was 7 fold.
